Test results taken from patent publication US7598278B2, “Administration of pyridinedicarboxylic acid compounds for stimulating or inducing the growth of human keratinous fibers and/or arresting their loss” (L'Oreal, priority 2002, dated 2009).
Read-outs that look alike come from different tables or passages of the source.

Legend:
[1] = test system: men exhibiting androgenetic alopecia of stage III to V according to the Hamilton classification; conditions: for No. of hairs/per cm^2 (DE): mean ± standard deviation
Description: Pyridine-2,4-dicarboxylic acid was tested in the form of the Na double salt formulated at a concentration of 5% in an aqueous/alcoholic lotion.
The evaluation of the effectiveness of the treatments was carried out by determining the total pilar density of hairs per cm^2 (DE) using the phototrichogram technique. This examination was carried out before treatment (M0) and after 3 months of treatment (M3).

[2] = test system: men exhibiting androgenetic alopecia of stage III to V according to the Hamilton classification; assay: 1st study: in vivo activity, total pilar density of hairs per cm^2 (DE) by phototrichogram; design: species or system human; conditions: for No. of hairs/per cm^2 (DE): mean ± standard deviation
Excerpt: It was studied at a concentration of 2%, formulated in a ternary lotion based on propylene glycol, ethanol and water.

[3] = test system: proline hydroxylase; conditions: K. Majamaa et al., Eur. J. Biochem., 138, 1984, 239-245; cited from earlier work

Structure (SMILES) | hair loss (decrease in total density) compared with placebo areas, times smaller ([1]; 5% lotion, 3 months, versus placebo areas) [times] | No. of hairs/per cm^2 (DE) ([1]; M0, before treatment, scalp area to receive 5% aqueous/alcoholic lotion, 22 men) [hairs/per cm^2] | No. of hairs/per cm^2 (DE) ([1]; M3, after 3 months, 5% aqueous/alcoholic lotion, 30 μl once daily, 5 days per week, topical on scalp) [hairs/per cm^2] | DE variation (%) ([1]; mean of the variation at M3 with respect to M0, 5% lotion, 30 μl once daily, 5 days per week, 3 months) | change of total density of treated areas (in words) ([2]; 2% lotion, 3 months, placebo areas do not change) | No. of hairs/per cm^2 (DE) ([2]; M0, before treatment, scalp area to receive 2% lotion (propylene glycol, ethanol, water), 25 men) [hairs/per cm^2] | No. of hairs/per cm^2 (DE) ([2]; M3, after 3 months, 2% lotion, 30 μl once daily, 5 days per week, topical on scalp) [hairs/per cm^2] | DE variation (%) ([2]; M3 with respect to M0, 2% lotion, 30 μl once daily, 5 days per week, 3 months) | inhibition of proline hydroxylase (in words) [3]
O=C([O-])c1ccnc(C(=O)[O-])c1.[Na+].[Na+] [Na disalt of Pyridine-2,4-dicarboxylic acid] | 4 | 249 ± 50 | 246 ± 50 | −0.97 | – | – | – | – | –
O=C(O)c1ccnc(C(=O)O)c1 [Pyridine-2,4-dicarboxylic acid] | – | – | – | – | increase in the total density | 213 ± 45 | 224 ± 53 | 4.4 | very weak inhibitors
O=C(O)c1ccc(C(=O)O)nc1 [pyridine-2,5-dicarboxylic acids, pyridine-2,5-dicarboxylic acid] | – | – | – | – | – | – | – | – | very weak inhibitors
